Several values for one entry are separate records, joined by “and”; a condition that tells them apart may be missing. Equal values may be shown once. Inconclusive results and toxic doses are left out.
Test system: L1210 leukemia ip in BDF1 mice, survival T/C
Test: NCI In Vivo Anticancer Drug Screen. Data for tumor model L1210 Leukemia (intraperitoneal) in B6D2F1 (BDF1) mice
Conditions: endpoint: mean survival time, higher = longer survival
How it was run: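 Value reflects the ratio of survival in compound-treated mice to survival in vehicle-treated controls, with both groups carrying the same transplanted tumor.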

[1] = dose: 100.0 mg/kg/injection, schedule: Q01DX001 (ip), vehicle: saline
[2] = dose: 200.0 mg/kg/injection, schedule: Q01DX001 (ip), vehicle: saline
[3] = dose: 400.0 mg/kg/injection, schedule: Q01DX001 (ip), vehicle: saline
[4] = dose: 50.0 mg/kg/injection, schedule: Q04DX003 (ip), vehicle: saline
[5] = dose: 100.0 mg/kg/injection, schedule: Q04DX003 (ip), vehicle: saline
[6] = dose: 200.0 mg/kg/injection, schedule: Q04DX003 (ip), vehicle: saline
[7] = dose: 400.0 mg/kg/injection, schedule: Q04DX003 (ip), vehicle: saline
[8] = dose: 12.5 mg/kg/injection, schedule: Q01DX009 (ip), vehicle: Klucel (hydroxypropylcellulose) (HPC)
[9] = dose: 25.0 mg/kg/injection, schedule: Q01DX009 (ip), vehicle: Klucel (hydroxypropylcellulose) (HPC)
[10] = dose: 25.0 mg/kg/injection, schedule: Q04DX003 (ip), vehicle: Klucel (hydroxypropylcellulose) (HPC)
[11] = dose: 50.0 mg/kg/injection, schedule: Q01DX009 (ip), vehicle: Klucel (hydroxypropylcellulose) (HPC)
[12] = dose: 100.0 mg/kg/injection, schedule: Q01DX009 (ip), vehicle: Klucel (hydroxypropylcellulose) (HPC)
[13] = dose: 100.0 mg/kg/injection, schedule: Q04DX003 (ip), vehicle: Klucel (hydroxypropylcellulose) (HPC)
[14] = dose: 200.0 mg/kg/injection, schedule: Q01DX009 (ip), vehicle: Klucel (hydroxypropylcellulose) (HPC)
[15] = dose: 200.0 mg/kg/injection, schedule: Q04DX003 (ip), vehicle: Klucel (hydroxypropylcellulose) (HPC)
[16] = dose: 50.0 mg/kg/injection, schedule: Q01DX009 (ip), vehicle: other
[17] = dose: 100.0 mg/kg/injection, schedule: Q01DX009 (ip), vehicle: other
[18] = dose: 200.0 mg/kg/injection, schedule: Q01DX009 (ip), vehicle: other
[19] = dose: 100.0 mg/kg/injection, schedule: Q04DX003 (ip), vehicle: saline with Tween-80
[20] = dose: 200.0 mg/kg/injection, schedule: Q04DX003 (ip), vehicle: saline with Tween-80
[21] = dose: 400.0 mg/kg/injection, schedule: Q04DX003 (ip), vehicle: saline with Tween-80
[22] = dose: 6.25 mg/kg/injection, schedule: Q01DX009 (ip), vehicle: saline
[23] = dose: 12.5 mg/kg/injection, schedule: Q01DX009 (ip), vehicle: saline
[24] = dose: 12.5 mg/kg/injection, schedule: Q04DX003 (ip), vehicle: saline
[25] = dose: 25.0 mg/kg/injection, schedule: Q01DX009 (ip), vehicle: saline
[26] = dose: 25.0 mg/kg/injection, schedule: Q04DX003 (ip), vehicle: saline
[27] = dose: 50.0 mg/kg/injection, schedule: Q01DX009 (ip), vehicle: saline
[28] = dose: 75.0 mg/kg/injection, schedule: Q01DX001 (ip), vehicle: carboxymethylcellulose (CMC)
[29] = dose: 150.0 mg/kg/injection, schedule: Q01DX001 (ip), vehicle: carboxymethylcellulose (CMC)
[30] = dose: 300.0 mg/kg/injection, schedule: Q01DX001 (ip), vehicle: carboxymethylcellulose (CMC)

N#CC1(C#N)OC12CCS(=O)(=O)c1ccccc12 (stereo not given)
T/C [1]: 88 % of control
T/C [2]: 95 % of control
T/C [3]: 101 % of control

Clc1nc2cc(Cl)c(Cl)cc2[nH]1
T/C (dose: 100.0 mg/kg/injection, schedule: Q04DX003 (ip), vehicle: acetone): 95 % of control
T/C (dose: 200.0 mg/kg/injection, schedule: Q04DX003 (ip), vehicle: acetone): 95 % of control

CC1CNC(=S)O1 (stereo not given)
T/C [4]: 96 % of control
T/C [5]: 98 % of control
T/C [6]: 101 % of control
T/C [7]: 108 % of control

Nc1cccc2ncccc12
T/C [5]: 104 % of control
T/C [6]: 101 % of control
T/C [7]: 103 % of control

Clc1ccc2sc3c(c2c1)CCNC3
T/C [8]: 94 % of control
T/C [9]: 97 % of control
T/C [10]: 97 % of control
T/C [11]: 90 % of control
T/C [12]: 101 % of control
T/C [13]: 92 % of control
T/C [14]: 95 % of control
T/C [15]: 92 % of control

CC(Oc1ccccc1)C(=O)NC(=S)Nc1cc(C(F)(F)F)ccc1Cl (stereo not given)
T/C [16]: 101 % of control and 103 % of control
T/C (dose: 100.0 mg/kg/injection, schedule: Q01DX001 (ip), vehicle: other): 105 % of control
T/C [17]: 100 % of control and 92 % of control
T/C (dose: 100.0 mg/kg/injection, schedule: Q04DX002 (ip), vehicle: other): 97 % of control and 110 % of control
T/C (dose: 200.0 mg/kg/injection, schedule: Q01DX001 (ip), vehicle: other): 100 % of control
T/C [18]: 95 % of control and 92 % of control
T/C (dose: 200.0 mg/kg/injection, schedule: Q04DX002 (ip), vehicle: other): 98 % of control and 106 % of control
T/C (dose: 400.0 mg/kg/injection, schedule: Q01DX001 (ip), vehicle: other): 94 % of control
T/C (dose: 400.0 mg/kg/injection, schedule: Q01DX009 (ip), vehicle: other): 87 % of control
T/C (dose: 400.0 mg/kg/injection, schedule: Q04DX002 (ip), vehicle: other): 97 % of control and 116 % of control

COCCOCCOC(C)Oc1ccc(C(=O)OC)cc1 (stereo not given)
T/C (dose: 100.0 mg/kg/injection, schedule: Q04DX002 (ip), vehicle: saline): 105 % of control
T/C (dose: 200.0 mg/kg/injection, schedule: Q04DX002 (ip), vehicle: saline): 92 % of control
T/C (dose: 400.0 mg/kg/injection, schedule: Q04DX002 (ip), vehicle: saline): 108 % of control

CN(C)/N=N/c1[nH]ncc1C(N)=O
T/C [1]: 113 % of control
T/C (dose: 108.0 mg/kg/injection, schedule: Q01DX009 (ip), vehicle: saline): 176 % of control
T/C (dose: 300.0 mg/kg/injection, schedule: Q01DX009 (ip), vehicle: saline): 110 % of control
T/C (dose: 600.0 mg/kg/injection, schedule: Q01DX001 (ip), vehicle: saline): 156 % of control

COc1cc(/C=N\NC(=O)CNC(=O)Nc2cccc(Cl)c2)ccc1O
T/C (dose: 100.0 mg/kg/injection, schedule: Q01DX009 (ip), vehicle: saline with Tween-80): 90 % of control
T/C (dose: 200.0 mg/kg/injection, schedule: Q01DX009 (ip), vehicle: saline with Tween-80): 87 % of control

S=P(c1ccccc1)(N1CCCCC1)N1CCCCC1
T/C [5]: 97 % of control
T/C [6]: 93 % of control

Cc1ncc(N)c2c1OC(C)(C)OC2
T/C (dose: 50.0 mg/kg/injection, schedule: Q01DX001 (ip), vehicle: saline): 91 % of control

CSCCNC(=O)CS(=O)(=O)c1ccc(C)cc1
T/C [19]: 100 % of control
T/C [20]: 100 % of control
T/C [21]: 92 % of control

CC(C)(O)C(C)(O)c1cccc(Cl)c1 (stereo not given)
T/C [8]: 100 % of control
T/C [9]: 109 % of control
T/C [10]: 91 % of control
T/C [11]: 100 % of control
T/C (dose: 50.0 mg/kg/injection, schedule: Q04DX003 (ip), vehicle: Klucel (hydroxypropylcellulose) (HPC)): 93 % of control
T/C [12]: 100 % of control
T/C [13]: 96 % of control
T/C [14]: 98 % of control
T/C [15]: 90 % of control

CC(CCc1ccccc1)NC(C)C(O)c1ccc(O)cc1 (stereo not given)
T/C [22]: 101 % of control
T/C [23]: 104 % of control
T/C [24]: 94 % of control
T/C [25]: 98 % of control
T/C [26]: 102 % of control
T/C [27]: 97 % of control
T/C [4]: 94 % of control
T/C (dose: 100.0 mg/kg/injection, schedule: Q01DX009 (ip), vehicle: saline): 97 % of control
T/C [5]: 89 % of control

CCCCCCCC/C=C\CCCCCCCCOC(N)=O
T/C [16]: 96 % of control
T/C [17]: 94 % of control
T/C [19]: 100 % of control
T/C [18]: 89 % of control
T/C [20]: 95 % of control

NC(N)=N/N=C(\C=C\C=C(c1ccc(Cl)cc1)c1ccc(Cl)cc1)c1ccc(Cl)cc1
T/C [24]: 95 % of control
T/C [26]: 95 % of control
T/C [4]: 91 % of control

CC(C)=C1CCC(C)C/C1=N\N=C(N)N (stereo not given)
T/C (dose: 15.0 mg/kg/injection, schedule: Q01DX Z (ip), vehicle: carboxymethylcellulose (CMC)): 100 % of control
T/C (dose: 30.0 mg/kg/injection, schedule: Q01DX Z (ip), vehicle: carboxymethylcellulose (CMC)): 106 % of control
T/C (dose: 60.0 mg/kg/injection, schedule: Q01DX Z (ip), vehicle: carboxymethylcellulose (CMC)): 89 % of control
T/C (dose: 120.0 mg/kg/injection, schedule: Q01DX Z (oral), vehicle: carboxymethylcellulose (CMC)): 97 % of control
T/C (dose: 240.0 mg/kg/injection, schedule: Q01DX Z (oral), vehicle: carboxymethylcellulose (CMC)): 97 % of control
T/C (dose: 480.0 mg/kg/injection, schedule: Q01DX Z (oral), vehicle: carboxymethylcellulose (CMC)): 101 % of control

COc1ccc(CCCCC(=O)O)cc1O
T/C [1]: 103 % of control
T/C [2]: 103 % of control
T/C [3]: 107 % of control

CCCCCCCCCN(C)C(C)=O
T/C [28]: 94 % of control
T/C [29]: 91 % of control
T/C [30]: 96 % of control

CSc1nc(Cl)cc(N2CC2C)n1 (stereo not given)
T/C (dose: 25.0 mg/kg/injection, schedule: Q01DX Z (ip), vehicle: methylcellulose (MC)): 96 % of control

CN1C(=O)CC2(CCN(CCCC(=O)c3ccc(F)cc3)CC2)C1=O
T/C (dose: 3.12 mg/kg/injection, schedule: Q01DX009 (ip), vehicle: saline): 103 % of control and 108 % of control
T/C (dose: 6.25 mg/kg/injection, schedule: Q01DX009 (ip), vehicle: Klucel (hydroxypropylcellulose) (HPC)): 100 % of control
T/C [22]: 100 % of control and 101 % of control and 108 % of control
T/C [8]: 95 % of control
T/C [23]: 106 % of control and 112 % of control and 115 % of control
T/C [9]: 101 % of control
T/C [25]: 110 % of control
T/C (dose: 25.0 mg/kg/injection, schedule: Q04DX003 (ip), vehicle: alcohol): 108 % of control
T/C [11]: 110 % of control
T/C [27]: 120 % of control and 124 % of control
T/C (dose: 50.0 mg/kg/injection, schedule: Q04DX003 (ip), vehicle: alcohol): 106 % of control
T/C (dose: 100.0 mg/kg/injection, schedule: Q04DX003 (ip), vehicle: alcohol): 106 % of control

CCCCCCC(=O)/C=C/c1ccc(Cl)cc1
T/C (dose: 100.0 mg/kg/injection, schedule: Q01DX009 (ip), vehicle: acetone): 93 % of control
T/C [19]: 96 % of control
T/C (dose: 200.0 mg/kg/injection, schedule: Q01DX009 (ip), vehicle: acetone): 90 % of control
T/C [20]: 98 % of control
T/C (dose: 400.0 mg/kg/injection, schedule: Q01DX009 (ip), vehicle: acetone): 92 % of control
T/C [21]: 93 % of control

O=S(=O)(NCCBr)c1ccccc1
T/C [28]: 101 % of control
T/C [29]: 114 % of control
T/C [30]: 108 % of control
